Values after ≈ are worked out from the molar mass of the structure shown. Where a SMILES comes first, the peptide text is derived from it. Bridges are numbered along the chain shown (N, C = ends). [ ]: non-standard residue; d: D form. The star is where a group is joined. Decanoyl(3R-OH) = CCCCCCC[C@@H](O)CC(=O)*; dOrn = NCCC[C@@H](N)C(=O)O; Octanoyl = CCCCCCCC(=O)*; Dab = NCC[C@H](N)C(=O)O
What was measured:
K. pneumoniae ATCC 13833 = test: microbe, parasite or virus in culture; settings: ATCC 13833, 18 h
Protocol: (§1) All compounds synthesised in this study were assessed for their minimum inhibitory concentrations (MIC, mg/L) by broth microdilution assay against five antibiotic-sensitive and resistant ATCC reference strains covering the Gram-negative ESKAPE pathogens (Escherichia coli, Klebsiella pneumoniae, A. baumannii, and P. aeruginosa) (Table 1, Table 2 and Table 3). Staphylococcus aureus was also included as a representative Gram-positive bacterial strain. […] Polymyxin B 1, colistin 2, vancomycin and gentamicin were used as positive inhibitor comparator compounds. Compounds were counter-screened against human proximal tubular epithelial cells (HK-2), using LDH release as a general indicator of cellular toxicity.

S. aureus ATCC 25923 = test: microbe, parasite or virus in culture; settings: ATCC 25923, 18 h
Protocol: as §1

K. pneumoniae BAA 2146 = test: microbe, parasite or virus in culture; settings: BAA 2146, 18 h
Protocol: as §1

[1] = test system: K. pneumoniae ATCC 700603; test: microbe, parasite or virus in culture; settings: ATCC 700603, 18 h
Protocol: as §1

in vitro = settings: human
Protocol: as §1
Cytotoxicity to human kidney proximal tubular epithelial cell line, HK-2 (ATCC CRL-2190, sourced from ATCC; Manassas, VA, USA) was determined using the LDH assay as previously described. In brief, HK-2 cells were seeded as 2000 cells/well in black-walled clear bottom 384-well tissue culture treated plates (Corning, catalogue No. 3712) in DMEM/F12 medium (Gibco® 10565-042) containing 10% of Fetal Bovine Serum (FBS, Gibco® 10099-141) and incubated for 24 h at 37 °C, 5% CO2. Compounds were then added into each well with a concentration series from 300 µM to 2.3 µM in 2-fold dilutions. Colistin and polymyxin B were used as controls and tested at a final concentration range of 1 mM to 7.8 µM. The cells were incubated with the compounds for 24 h at 37 °C, 5% CO2. After the incubation, 5 µL of culture medium was added to 45 µL of LDH assay buffer (Biovision, K313-500) and incubated for 30 min at room temperature. The absorbance (ABS) was then read at 450 nm using a Polar Star Omega plate reader. The data was analysed by Prism 6 software (GraphPad Software, La Jolla, CA, USA). Results were calculated using the following equation: cytotoxicity %= (ABSsamples − ABSuntreated/ABS1%Triton X-100 − ABSuntreated) × 100.

A. baumannii ATCC 19606 = test: microbe, parasite or virus in culture; settings: ATCC 19606, 18 h
Protocol: as §1

P. aeruginosa ATTC 27853 = test: microbe, parasite or virus in culture; settings: ATTC 27853, 18 h
Protocol: as §1

E. coli ATCC 25922 = test: microbe, parasite or virus in culture; settings: ATCC 25922, 18 h
Protocol: as §1

Row | SMILES | MIC K. pneumoniae ATCC 13833 (K. pneumoniae ATCC 13833) [mg/L] | MIC S. aureus ATCC 25923 (S. aureus ATCC 25923) [mg/L] | MIC K. pneumoniae BAA 2146 (K. pneumoniae BAA 2146) [mg/L] | MIC K. pneumoniae ATCC 700603 [1] [mg/L] | CC50 at 24 h (in vitro) [µM] | MIC A. baumannii ATCC 19606 (A. baumannii ATCC 19606) [mg/L] | MIC P. aeruginosa ATTC 27853 (P. aeruginosa ATTC 27853) [mg/L] | MIC E. coli ATCC 25922 (E. coli ATCC 25922) [mg/L]
1 | CCCCCCCC(=O)N[C@@H](CCN)C(=O)N[C@H](C(=O)N[C@H](CO)C(=O)N[C@H]1CCNC(=O)[C@H]([C@@H](C)O)NC(=O)[C@H](CCN)NC(=O)[C@H](CCN)NC(=O)[C@H](CC(C)C)NC(=O)[C@@H](Cc2ccccc2)NC(=O)[C@H](CCN)NC1=O)[C@@H](C)O [Compound 34] (Octanoyl-[Dab]T[dS][Dab][Dab][dF]L[Dab][Dab]T; lactam 4-C) | 0.5 (≈ 0.425 µM) | >32 | 16 (≈ 13.6 µM) | 2 (≈ 1.7 µM) | 139 |  |  | 
2 | CCCCCCCC(=O)N[C@H](C(=O)N[C@H](CCCN)C(=O)N[C@H]1CCNC(=O)[C@H]([C@@H](C)O)NC(=O)[C@H](CCN)NC(=O)[C@H](CCN)NC(=O)[C@H](CC(C)C)NC(=O)[C@@H](Cc2ccccc2)NC(=O)[C@H](CCN)NC1=O)[C@@H](C)O [Compound 41] (Octanoyl-T[dOrn][Dab][Dab][dF]L[Dab][Dab]T; lactam 3-C) | 32 (≈ 29 µM) | >32 | 1 (≈ 0.906 µM) | 4 (≈ 3.63 µM) | > 300 | 16 (≈ 14.5 µM) | 4 (≈ 3.63 µM) | 1 (≈ 0.906 µM)
3 | CCCCCCC[C@@H](O)CC(=O)N[C@H](C(=O)NCC(=O)N[C@H]1CCNC(=O)[C@H]([C@@H](C)O)NC(=O)[C@H](CCN)NC(=O)[C@H](CCN)NC(=O)[C@H](CC(C)C)NC(=O)[C@@H](Cc2ccccc2)NC(=O)[C@H](CCN)NC1=O)[C@@H](C)O [Compound 52] ({Decanoyl(3R-OH)}-TG[Dab][Dab][dF]L[Dab][Dab]T; lactam 3-C) | >32 | >32 | 4 (≈ 3.67 µM) | 4 (≈ 3.67 µM) | > 300 | 32 (≈ 29.3 µM) | 4 (≈ 3.67 µM) | 1 (≈ 0.917 µM)
4 | CCCCCCCC(=O)N[C@H](C(=O)N[C@@H](Cc1c[nH]cn1)C(=O)N[C@H]1CCNC(=O)[C@H]([C@@H](C)O)NC(=O)[C@H](CCN)NC(=O)[C@H](CCN)NC(=O)[C@H](CC(C)C)NC(=O)[C@@H](Cc2ccccc2)NC(=O)[C@H](CCN)NC1=O)[C@@H](C)O [Compound 47] (Octanoyl-TH[Dab][Dab][dF]L[Dab][Dab]T; lactam 3-C) | >32 | >32 | 16 (≈ 14.2 µM) | 32 (≈ 28.4 µM) | > 300 | >32 | 16 (≈ 14.2 µM) | 4 (≈ 3.55 µM)
5 | CCCCCCCC(=O)N[C@@H](CCN)C(=O)N[C@H](C(=O)NCC(=O)N[C@H]1CCNC(=O)[C@H]([C@@H](C)O)NC(=O)[C@H](CCN)NC(=O)[C@H](CCN)NC(=O)[C@H](CC(C)C)NC(=O)[C@@H](Cc2ccccc2)NC(=O)[C@H](CCN)NC1=O)[C@@H](C)O [Compound 50] (Octanoyl-[Dab]TG[Dab][Dab][dF]L[Dab][Dab]T; lactam 4-C) | 0.5 (≈ 0.436 µM) | >32 |  |  | > 300 |  |  | 

Reference: paper PMC6384738, “Structure-Function Studies of Polymyxin B Lipononapeptides” (Molecules, 2019)
